Blank lines part the entries; values can stand above or below the molecule they belong to.
Assay: solvent given as SMILES

SMILES: F[B-]1(F)n2c(/C=C/c3ccc(C(=C(c4ccccc4)c4ccccc4)c4ccccc4)cc3)ccc2C(c2ccc(C(=C(c3ccccc3)c3ccccc3)c3ccccc3)cc2)=C2C=CC(/C=C/c3ccc(C(=C(c4ccccc4)c4ccccc4)c4ccccc4)cc3)=[N+]21
- emission maximum (in C1CCOC1): 685 nm

SMILES: C(=C\c1cc[n+]2ccc(/C=C/c3cc[nH]c3)cc2c1)/c1cc[nH]c1
- emission maximum (in CO): 542 nm

SMILES: CCCCn1c2ccc(-c3cccs3)cc2c2c1c1c3ccc(-c4cccs4)cc3n(CCCC)c1c1c3ccc(-c4cccs4)cc3n(CCCC)c21
- emission maximum (in C1CCOC1): 424 nm

SMILES: CC(C)(C)c1ccc(-c2nc3c4ccc(-c5ccc6ccc7cccc8ccc5c6c78)cc4c4cc(-c5ccc6ccc7cccc8ccc5c6c78)ccc4c3n2-c2ccc(C(C)(C)C)cc2)cc1
- emission maximum (in C1CCOC1): 442 nm
- emission maximum (in C1COCCO1): 432 nm
- emission maximum (in CC#N): 460 nm
- emission maximum (in CCCCCC): 428 nm
- emission maximum (in CCCCOCCCC): 427 nm
- emission maximum (in CCN(CC)CC): 428 nm
- emission maximum (in CCOC(C)=O): 440 nm
- emission maximum (in CCOCC): 432 nm
- emission maximum (in CN(C)C=O): 459 nm
- emission maximum (in Cc1ccccc1): 433 nm
- emission maximum (in ClC=C(Cl)Cl): 437 nm
- emission maximum (in ClCCl): 450 nm

SMILES: Cc1cc(C)n2c1C=C1c3ccccc3C(c3[nH]c4ccccc4c3C)=[N+]1[B-]2(F)F
- emission maximum (in C1CCOC1): 628 nm
- emission maximum (in CC#N): 623 nm
- emission maximum (in CCCCCC): 626 nm
- emission maximum (in CO): 624 nm
- emission maximum (in Cc1ccccc1): 636 nm
- emission maximum (in ClCCl): 631 nm

SMILES: CC(C)(C)c1ccc(-c2nc(-c3ccc(C(C)(C)C)cc3)nc(-c3cc(C#N)c(-n4c5ccccc5c5c6oc7ccccc7c6ccc54)c(C#N)c3)n2)cc1
- emission maximum (in C1CCOC1): 504.66 nm

SMILES: COc1ccc(C2=[O+][B-](F)(F)OC(c3ccc4c(c3)Cc3ccccc3-4)=C2)cc1
- emission maximum (in CC#N): 466 nm

SMILES: N#Cc1ccc2nc3c(=O)[nH]c(=O)[nH]c3nc2c1
- emission maximum (in ClCCCl): 430 nm

SMILES: CC[NH+](CC)c1ccc(-c2nc3c4ccccc4n(C)c3nc2-c2ccc(B(c3c(C)cc(C)cc3C)c3c(C)cc(C)cc3C)cc2)cc1
- emission maximum (in C1CCOC1): 451.19 nm

SMILES: c1ccc(-c2nnc(-c3cc(-c4nnc(-c5ccccc5)o4)c(-n4c5ccccc5c5ccccc54)cc3-n3c4ccccc4c4ccccc43)o2)cc1
- emission maximum (in Cc1ccccc1): 439 nm
- emission maximum (in O=P(c1ccccc1)(c1ccccc1)c1ccccc1Oc1ccccc1P(=O)(c1ccccc1)c1ccccc1): 459 nm

SMILES: COC(=O)C1=C(C(=O)OC)C2(c3ccccc3-c3ccccc32)[C@@H](c2ccc(C)cc2)C=C2c3cc(OC)c(OC)cc3CCN21
- emission maximum (in ClCCl): 425 nm

SMILES: CN(C)c1ccc(C2=CC(c3ccccc3)=[N+]3C2=Nc2c(-c4ccc(N(C)C)cc4)cc(-c4ccccc4)n2[B-]3(F)F)cc1
- emission maximum (in Cc1ccccc1): 822 nm

SMILES: FC(F)(F)c1cc2n(n1)[B-](c1ccccc1)(c1ccccc1)[n+]1ccc3ccccc3c1-2
- emission maximum (in C1CCCCC1): 410 nm
- emission maximum (in Cc1ccccc1): 410 nm
- emission maximum (in ClCCl): 404 nm

SMILES: Cc1ccc2c(c1)C1(c3ccccc3-c3ccccc31)c1cc(C)ccc1N2c1ccc(-c2nc(-c3ccccc3)cc(-c3ccccc3)n2)cc1
- emission maximum (in Cc1ccccc1): 458 nm
- emission maximum (in O=P(c1ccccc1)(c1ccccc1)c1ccc2oc3ccc(P(=O)(c4ccccc4)c4ccccc4)cc3c2c1): 464 nm

More lines, now with the values ahead:

- emission maximum (in ClCCl): 661 nm
SMILES: CC(C)[Si](C#Cc1c2cc3ccccc3cc2c(C#Cc2ccccc2)c2cc3ccccc3cc12)(C(C)C)C(C)C

- emission maximum (in CC#N): 344 nm
- emission maximum (in CCOC(C)=O): 345 nm
- emission maximum (in CO): 350 nm
- emission maximum (in O): 351 nm
SMILES: O=c1[nH]c(=O)n([C@@H]2O[C@H](CO)[C@@H](O)[C@H]2O)c2ccsc12

- emission maximum (in ClCCl): 458 nm
SMILES: CC(=O)c1ccc(C#Cc2ccc(-c3cc(N(C)C)c4ccccc4c3)cc2)cc1

- emission maximum (in ClCCl): 577 nm
SMILES: CC1=C2C=CC(c3ccccc3)=[N+]2[B-](F)(F)n2c1ccc2-c1ccccc1

- emission maximum (in ClCCl): 449 nm
SMILES: CC(C)(C)c1ccc(-c2cc(-c3ccc(-c4cc(-c5ccc(C(C)(C)C)cc5)c(C(=O)NCc5ccccc5)s4)s3)sc2C(=O)NCc2ccccc2)cc1

- emission maximum (in ClCCl): 418 nm
SMILES: Cc1cccc(-c2c3ccccc3cc3ccccc23)n1

- emission maximum (in ClCCl): 486 nm
SMILES: C(=C\c1c2ccccc2cc2ccccc12)/c1ccc(Oc2ccc3ccccc3c2-c2c(Oc3ccc(/C=C/c4c5ccccc5cc5ccccc45)cc3)ccc3ccccc23)cc1

— the Deep4Chem optical property database
